These substances were tested on Thyroid cancer (assay: MTT assay, tumor cells). Settings: 48 hours, mean ± SD.
Assay type: cell-based, human
Set-up: concentration or dose not given beside the values
Method: (§1) A variety of human tumor cells were cultured in a 37° C., 5% (volume fraction) CO2 incubator to a density of 90% or more, collected by trypsinization, resuspended in a culture medium and counted under a microscope, and the cells were harvested. The concentration was adjusted to 2.0×10^4 cells/mL, the cell suspension was inoculated into a 96-well plate at 100 μL per well and cultured overnight at 37° C. in a 5% (volume fraction) CO2 incubator. After the cells were completely adhered, the polypeptides of the present invention were added as drug-administered groups, and a culture solution containing no drug was used as a blank control group, and the culture solution was diluted to each predetermined concentration. Each dilution was separately added to a 96-well plate at 100 μL per well and incubated for 48 hours at 37° C. in a 5% (volume fraction) CO2 incubator. 20 μL of 5 mg/mL MTT was added to each well of a 96-well plate and incubation was continued for 4 h. The medium was aspirated and dissolved in 100 μL of DMSO per well. The absorbance was measured with a microplate reader at a detection wavelength of 570 nm and a reference wavelength of 630 nm, and the growth inhibition rate was calculated as follows: tumor growth inhibition rate (%)=(1−absorbance value of the administered group/unadministered group absorbance value)×100%, and the experiment was repeated 3 times independently. The results obtained from the test were expressed as mean±standard deviation, and the tumor growth inhibition rate of the unadministered group was 0. The results in Table 7 indicate that the polypeptides of the present invention have a significant inhibitory effect on the growth of various tumors (FIG. 6).

Row | Substance | tumor growth inhibition rate, MTT Assay
1 | Ile-Val-Arg-Arg-Ala-Asp-Arg-Ala-Ala-Val-Pro-Gly-Gly-Gly-Gly-Arg-Gly-Asp-Gly-Gly-Gly-Gly-Pro-(D-Pyr)-(D-Cys)-Bip-Arg-Gly-Glu [Polypeptide V] | 53.71 ± 14.40%

Each substance was assayed on Head and neck cancer (assay: MTT assay, tumor cells). Settings: 48 hours, mean ± SD.
Assay type: cell-based, human
Set-up: concentration or dose not given beside the values
Method: as §1

Row | Substance | tumor growth inhibition rate, MTT Assay
2 | Ile-Val-Arg-Arg-Ala-Asp-Arg-Ala-Ala-Val-Pro-Gly-Gly-Gly-Gly-Arg-Gly-Asp-Gly-Gly-Gly-Gly-Pro-(D-Pyr)-(D-Cys)-Bip-Arg-Gly-Glu [Polypeptide V] | 41.65 ± 11.17%

Each substance was assayed on Breast cancer (assay: MTT assay, tumor cells). Settings: 48 hours, mean ± SD.
Assay type: cell-based, human
Set-up: concentration or dose not given beside the values
Method: as §1

Row | Substance | tumor growth inhibition rate, MTT Assay
3 | Ile-Val-Arg-Arg-Ala-Asp-Arg-Ala-Ala-Val-Pro-Gly-Gly-Gly-Gly-Arg-Gly-Asp-Gly-Gly-Gly-Gly-Pro-(D-Pyr)-(D-Cys)-Bip-Arg-Gly-Glu [Polypeptide V] | 78.51 ± 21.05%

What follows are substances tested on Esophageal cancer (assay: MTT assay, tumor cells). Settings: 48 hours, mean ± SD.
Assay type: cell-based, human
Set-up: concentration or dose not given beside the values
Method: as §1

Row | Substance | tumor growth inhibition rate, MTT Assay
4 | Ile-Val-Arg-Arg-Ala-Asp-Arg-Ala-Ala-Val-Pro-Gly-Gly-Gly-Gly-Arg-Gly-Asp-Gly-Gly-Gly-Gly-Pro-(D-Pyr)-(D-Cys)-Bip-Arg-Gly-Glu [Polypeptide V] | 56.43 ± 15.13%

Each substance was assayed on sarcoma (assay: MTT assay, tumor cells). Settings: 48 hours, mean ± SD.
Assay type: cell-based, human
Set-up: concentration or dose not given beside the values
Method: as §1

Row | Substance | tumor growth inhibition rate, MTT Assay
5 | Ile-Val-Arg-Arg-Ala-Asp-Arg-Ala-Ala-Val-Pro-Gly-Gly-Gly-Gly-Arg-Gly-Asp-Gly-Gly-Gly-Gly-Pro-(D-Pyr)-(D-Cys)-Bip-Arg-Gly-Glu [Polypeptide V] | 56.55 ± 15.16%

The substances below were run on Ovarian cancer (assay: MTT assay, tumor cells). Settings: 48 hours, mean ± SD.
Assay type: cell-based, human
Set-up: concentration or dose not given beside the values
Method: as §1

Row | Substance | tumor growth inhibition rate, MTT Assay
6 | Ile-Val-Arg-Arg-Ala-Asp-Arg-Ala-Ala-Val-Pro-Gly-Gly-Gly-Gly-Arg-Gly-Asp-Gly-Gly-Gly-Gly-Pro-(D-Pyr)-(D-Cys)-Bip-Arg-Gly-Glu [Polypeptide V] | 77.90 ± 20.89%

The substances below were run on Cervical cancer (assay: MTT assay, tumor cells). Settings: 48 hours, mean ± SD.
Assay type: cell-based, human
Set-up: concentration or dose not given beside the values
Method: as §1

Row | Substance | tumor growth inhibition rate, MTT Assay
7 | Ile-Val-Arg-Arg-Ala-Asp-Arg-Ala-Ala-Val-Pro-Gly-Gly-Gly-Gly-Arg-Gly-Asp-Gly-Gly-Gly-Gly-Pro-(D-Pyr)-(D-Cys)-Bip-Arg-Gly-Glu [Polypeptide V] | 64.58 ± 24.72%

What follows are substances tested on Colorectal cancer (assay: MTT assay, tumor cells). Settings: 48 hours, mean ± SD.
Assay type: cell-based, human
Set-up: concentration or dose not given beside the values
Method: as §1

Row | Substance | tumor growth inhibition rate, MTT Assay
8 | Ile-Val-Arg-Arg-Ala-Asp-Arg-Ala-Ala-Val-Pro-Gly-Gly-Gly-Gly-Arg-Gly-Asp-Gly-Gly-Gly-Gly-Pro-(D-Pyr)-(D-Cys)-Bip-Arg-Gly-Glu [Polypeptide V] | 73.08 ± 19.60%

These substances were tested on Hemangioma (assay: MTT assay, tumor cells). Settings: 48 hours, mean ± SD.
Assay type: cell-based, human
Set-up: concentration or dose not given beside the values
Method: as §1

Row | Substance | tumor growth inhibition rate, MTT Assay
9 | Ile-Val-Arg-Arg-Ala-Asp-Arg-Ala-Ala-Val-Pro-Gly-Gly-Gly-Gly-Arg-Gly-Asp-Gly-Gly-Gly-Gly-Pro-(D-Pyr)-(D-Cys)-Bip-Arg-Gly-Glu [Polypeptide V] | 87.49 ± 23.46%

What follows are substances tested on Gastric cancer (assay: MTT assay, tumor cells). Settings: 48 hours, mean ± SD.
Assay type: cell-based, human
Set-up: concentration or dose not given beside the values
Method: as §1

Row | Substance | tumor growth inhibition rate, MTT Assay
10 | Ile-Val-Arg-Arg-Ala-Asp-Arg-Ala-Ala-Val-Pro-Gly-Gly-Gly-Gly-Arg-Gly-Asp-Gly-Gly-Gly-Gly-Pro-(D-Pyr)-(D-Cys)-Bip-Arg-Gly-Glu [Polypeptide V] | 55.67 ± 18.63%

Each substance was assayed on Staphylococcal fluid (assay: Mouse pneumonia model, bacterial). Settings: mean ± SD.
Assay type: in vivo, BALB/C mice
Set-up: concentration or dose not given beside the values
Method: (§2) The mouse pneumonia model was successfully established by the nose-drop method. To build the mouse pneumonia model, BALB/C mice with a body mass of 16-22 g were selected and anesthetized pneumonia chain was prepared after anesthesia with ether on day 0, day 1, and day 2. Staphylococcal fluid, adenovirus concentrate, Mycoplasma pneumoniae, Chlamydia pneumoniae, protozoa, and pneumonia fungi were slowly dripped into the nasal cavity of the mice, so that they enter the tracheobronchial. During the operation process, care was exercised to prevent bacterial fluid from flowing into the esophagus, which leads to inactivation the bacterial fluid. After successful model establishment, the polypeptides of the present invention were administered, and the results were shown in Table 5. […] The results were expressed in average value±standard deviation.

Row | Substance | Inhibitory Effects on Various Pulmonary Infections
11 | Ile-Val-Arg-Arg-Ala-Asp-Arg-Ala-Ala-Val-Pro-Gly-Gly-Gly-Gly-Arg-Gly-Asp-Gly-Gly-Gly-Gly-Pro-(D-Pyr)-(D-Cys)-Bip-Arg-Gly-Glu [Polypeptide V] | 38.12 ± 11.17%

The substances below were run on Mycoplasma pneumoniae (assay: Mouse pneumonia model, mycoplasma). Settings: mean ± SD.
Assay type: in vivo, BALB/C mice
Set-up: concentration or dose not given beside the values
Method: as §2

Row | Substance | Inhibitory Effects on Various Pulmonary Infections
12 | Ile-Val-Arg-Arg-Ala-Asp-Arg-Ala-Ala-Val-Pro-Gly-Gly-Gly-Gly-Arg-Gly-Asp-Gly-Gly-Gly-Gly-Pro-(D-Pyr)-(D-Cys)-Bip-Arg-Gly-Glu [Polypeptide V] | 34.37 ± 14.40%

Each substance was assayed on protozoa (assay: Mouse pneumonia model, protozoal). Settings: mean ± SD.
Assay type: in vivo, BALB/C mice
Set-up: concentration or dose not given beside the values
Method: as §2

Row | Substance | Inhibitory Effects on Various Pulmonary Infections
13 | Ile-Val-Arg-Arg-Ala-Asp-Arg-Ala-Ala-Val-Pro-Gly-Gly-Gly-Gly-Arg-Gly-Asp-Gly-Gly-Gly-Gly-Pro-(D-Pyr)-(D-Cys)-Bip-Arg-Gly-Glu [Polypeptide V] | 53.19 ± 20.63%
